Source: patent publication US5550145A, “Potentiation of antimicrobial effects” (Bioglan AB, priority 1992, dated 1996)
In brackets after ≈: the same amount, converted by molar mass.

Tests used:
S. aureus = assay: MIC (minimum inhibitory concentration) determination; assay type: cell-based
S. epidermis = assay: as above; assay type: cell-based
C. albicans = assay: as above; assay type: cell-based
T. rubrum = assay: as above; assay type: cell-based
P. ovale = assay: as above; assay type: cell-based
Gram positive bacteria = settings: effects demonstrated only on Gram positive bacteria; cited from earlier work
[1] = generally accepted; cited from earlier work
aerobic bacteria = assay: Killing effect; assay type: cell-based; settings: aqueous solutions of tinidazole; test not described
Procedure: The composition was prepared as in Example 4. […] In particular, the product is usable for disease states such as acne and seborrhoea.

OCCCCCO [1,5-pentanediol solution, 1,5-pentanediol]
MIC value (S. aureus): 50 mg/mL (≈ 480 mM)
MIC value (S. epidermis): 50 mg/mL (≈ 480 mM)
MIC value (C. albicans): 40 mg/mL (≈ 384 mM)
MIC value (T. rubrum): 10 mg/mL (≈ 96 mM)
MIC value (P. ovale): 20 mg/mL (≈ 192 mM)

CCCCCCCCCCCC(=O)OCC(O)CO (stereo not shown) [monolaurin, monoglyceride of lauric acid]
antimicrobial properties per se (Gram positive bacteria): exhibit certain antimicrobial properties
toxicity [1]: completely non-toxic

CCCCCCCCCCCCCC(=O)OCC(O)CO (stereo not shown) [monomyristin, monoglyceride of myristic acid]
antimicrobial properties per se (Gram positive bacteria): exhibit certain antimicrobial properties
toxicity [1]: completely non-toxic

CCS(=O)(=O)CCn1c([N+](=O)[O-])cnc1C [tinidazole]
effectiveness of aqueous solutions against aerobic bacteria (aerobic bacteria): not effective
